Test results published in PubChem BioAssay AID179 (DTP/NCI, 2004).
Calls of active or inactive are those of the source.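 The calls were made as follows: active = compounds giving half or more protection of infected cells from virus-caused growth loss, again on retest; inactive = the rest.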

Tested on: CEM cells HIV-1 protection, formazan growth assay
Experiment: NCI AIDS Antiviral Assay
Conditions: for IC50: measured here: growth of uninfected CEM cells
Experimental: The ability of compounds to protect human CEM cells from HIV-1 infection is measured as a screen for new compounds capable of inhibiting the HIV virus. Five concentrations of drug were tested on uninfected and infected cells and cell growth was measured using a soluble formazan assay. […] Compounds that provided at least 50% protection were retested. Compounds that provided at least 50% protection on retest were listed as moderately active. Compounds that reproducibly provided 100% protection were listed as confirmed active. […] Note that the inability to provide protection could be due to toxicity.

| SMILES | EC50 [µM] | IC50 [µM] | outcome |
| --- | --- | --- | --- |
| O=C1CC(c2ccco2)NC(=O)N1CCCl (stereo unspecified) | > 200 | > 200 | – |
| CCC(=O)C(C)C(=O)C(=O)NCCNC(=O)C(=O)C(C)C(=O)CC (stereo unspecified) | – | – | inactive |
| COc1cc(C2C(Cl)C(=O)N2NC(=O)Cc2ccccc2)cc(Br)c1O (stereo unspecified) | > 30.9 | > 30.9 | – |
| O=c1c(SCc2ccccc2Cl)c(SCc2ccccc2Cl)cnn1-c1ccccc1 | > 7.76 | 5.5 | – |
| O=C1NC2(CCNCC2)Oc2ccccc21 | > 200 | > 200 | – |
| O=C(Nc1ccc([N+](=O)[O-])cc1)OCC(COc1ccccc1)OC(=O)Nc1ccc([N+](=O)[O-])cc1 (stereo unspecified) | > 200 | 7.76 | – |
| COC(=O)C1=C(O)C(O)=C(C(=O)OC)CC1 | 468 | 912 | – |
| CC1CC[N+]2(C)CCCC12 (stereo unspecified) | > 1120 | > 1120 | – |
| O=C(Cc1ccccc1)NN1C(=O)C(Cl)C1c1cc(Br)ccc1O (stereo unspecified) | > 12.6 | 6.92 | – |
| CCC[CH2][Sn]1([CH2]CCC)[O]CC(CN2CCCC2)[O]1 (stereo unspecified) | > 34.7 | – | – |
| COc1ccc(OC)c(CCc2ccccc2CC(=O)O)c1 | > 832 | 501 | – |
| Cc1c([N+](=O)[O-])ccc2c1C(=O)c1ccccc1C2=O | > 200 | 28.2 | – |
| CC1CN(C(=O)OCC23COC4(C)CCC(C)(OC2)N34)CC(C)O1 (stereo unspecified) | > 200 | > 200 | – |
| COc1nc(C(O)C2OC(C)(C)OCC2O)[nH]c1C#N (stereo unspecified) | – | – | inactive |
| COC1OC2COC1(OCc1ccccc1)C1OC(C)(C)OC21 (stereo unspecified) | > 200 | > 200 | – |
| CN(/N=C/c1cccc2cccnc12)c1ccc([N+](=O)[O-])cc1[N+](=O)[O-] | – | – | inactive |
| CC(C)C1CC=CC2[C@H]3C(C)(CC[C@]12CBr)C(Br)CC[C@@]3(C)O (stereo partly specified) | – | – | inactive |
| CC(C)(C)[Si](OC[C@H]1OC(=O)[C@@H]2CN(Cc3ccccc3)C[C@H]12)(c1ccccc1)c1ccccc1 | > 7.76 | > 7.76 | – |
| Cc1ccc(S(=O)(=O)OC[C@@H]2CO2)cc1 | > 115 | 14.1 | – |
| O=P1(O)C=CC2(CCCC2)O1 | > 200 | > 200 | – |
| O=C1C(SCCO)=C(SCCO)C(=O)c2[nH]cnc21 | > 437 | 42.7 | – |
| C[Si](C)(C)C(Sc1ccccc1)(Sc1ccccc1)Sc1ccccc1 | – | – | inactive |
| O=C1c2cccc3cccc(c23)C(=O)N1c1ncn[nH]1 | > 100 | > 100 | – |

| SMILES | EC50 [µM] | IC50 [µM] | outcome |
| --- | --- | --- | --- |
| COc1ccc(N=Cc2ccc(N(CCC#N)S(=O)(=O)c3ccccc3)cc2)cc1 | > 162 | > 162 | – |
| NC1=NS(=O)(=O)Nc2nonc21 | > 1320 | > 1320 | – |
| NCCCCC(NC(=O)C(CS)NC(=O)C(N)Cc1cnc[nH]1)C(=O)NC(Cc1ccccc1)C(=O)NC(Cc1c[nH]c2ccccc12)C(=O)NC(Cc1c[nH]c2ccccc12)C(N)=O (stereo unspecified) | > 50.1 | > 50.1 | – |
| O=C1NC(=O)C(=Nc2cccc3c(=O)[nH][nH]c(=O)c23)C(c2nc3ccccc3s2)C1=O (stereo unspecified) | – | – | inactive |
| O=C1CCC2(c3ccc(F)cc3)Nc3cc([N+](=O)[O-])ccc3N12 (stereo unspecified) | > 16.6 | > 16.6 | – |
| O=C1CCCC2=C1C(c1ccncc1)Nc1ccccc1N2 (stereo unspecified) | > 200 | > 200 | – |
| CCCCCCCCCCCCCCCC(=O)NCC(COP(=O)([O-])OCC[N+](C)(C)C)OCC (stereo unspecified) | – | – | inactive |
| CCOC(=O)c1c(SC(=O)c2ccc(C(C)(C)C)cc2)n(-c2ccccc2)c(=S)n(-c2ccccc2)c1=O | > 200 | 27.5 | – |
| COc1cccc(C2c3cc4c(cc3OC(N3CCOCC3)C2C)OCO4)c1O (stereo unspecified) | > 200 | 3.09 | – |
| NC(=O)N/N=C(/c1nc2ccc([N+](=O)[O-])cc2[nH]c1=O)C(O)c1ccco1 (stereo unspecified) | > 182 | > 182 | – |
| COc1ccc2c(c1)CCN1C2CCN2C(=O)CCC21 (stereo unspecified) | > 912 | > 912 | – |
| O=C(c1ccccc1)N1CCC(Nc2nccs2)O1 (stereo unspecified) | > 200 | > 200 | – |
| O=S(=O)(NC1CCCCC1)c1ccc2c(c1)OCCOCCOCCOCCO2 | > 200 | > 200 | – |
| O=S(=O)(Nc1ncccn1)c1ccc(N=NSC2=NC=NC3=NC=NC32)cc1 (stereo unspecified) | > 200 | 5.25 | – |
| CN(C)NP(=O)(NN(C)C)NN(C)C | > 200 | > 200 | – |
| Cn1c2ccccc2c2nnc(N/N=C/c3ccncc3)nc21 | > 200 | > 200 | – |
| CC(C)(C)C1CCC2c3c([nH]c4ccccc34)C3C(=O)N(c4cc(Cl)ccc4Cl)C(=O)C3C2C1 (stereo unspecified) | > 200 | 19.1 | – |
| CN1CC[C@]2(C)c3c(O)cccc3CC3CCCC1C32C (stereo partly specified) | – | – | inactive |
| [Cl-].[Co+2].c1cnc2c(c1)ccc1cccnc12.c1cnc2c(c1)ccc1cccnc12.c1cnc2c(c1)ccc1cccnc12 | > 100 | 0.977 | – |
| CC(=O)OC1CCC2C3CCc4c(C)ccc(OS(=O)(=O)c5ccccc5)c4C3CCC12C (stereo unspecified) | > 200 | > 200 | – |
| N#CC(Cc1ccccc1)C(=O)NN (stereo unspecified) | > 200 | > 200 | – |
| O=C(c1ccccc1[N+](=O)[O-])C(Br)C(Br)c1ccc(Cl)c(Cl)c1 (stereo unspecified) | > 20 | 1 | – |
